# According to ChEMBL document CHEMBL1255359, “Mechanisms of macrolide resistance among Streptococcus pneumoniae isolates from Russia” (2008):
# Tests used:
# Assay type in all cases: functional
# [1] = system: Streptococcus pneumoniae; experiment: Antibacterial activity against inducible macrolide-lincosamide-streptogramin B resistant and erm(B)-positive Streptococcus pneumoniae by broth dilution method
# [2] = system: Streptococcus pneumoniae; experiment: Antibacterial activity against macrolide resistant and mef-positive Streptococcus pneumoniae by broth dilution method
# [3] = system: Streptococcus pneumoniae; experiment: Antibacterial activity against macrolide resistant and mef(I)-positive Streptococcus pneumoniae by broth dilution method
# [4] = system: Streptococcus pneumoniae; experiment: Antibacterial activity against constitutive macrolide-lincosamide-streptogramin B resistant erm(B) and mef(E)-positive Streptococcus pneumoniae by broth dilution method
# [5] = system: Streptococcus pneumoniae; experiment: Antibacterial activity against constitutive macrolide-lincosamide-streptogramin B resistant and erm(B)-positive Streptococcus pneumoniae by broth dilution method
# [6] = system: Streptococcus pneumoniae; experiment: Antibacterial activity against macrolide resistant and mef(E)-positive Streptococcus pneumoniae by broth dilution method
# [7] = system: Streptococcus pneumoniae; experiment: Antibacterial activity against inducible macrolide-lincosamide-streptogramin B resistant erm(B) and mef(E)-positive Streptococcus pneumoniae by broth dilution method
SMILES,MIC [1] [µg/mL],MIC [2] [µg/mL],MIC [3] [µg/mL],MIC [4] [µg/mL],MIC [5] [µg/mL],MIC [6] [µg/mL],MIC [7] [µg/mL]
CCC[C@@H]1C[C@@H](C(=O)N[C@@H]([C@H]2O[C@H](SC)[C@H](O)[C@@H](O)[C@H]2O)[C@H](C)Cl)N(C)C1 [CLINDAMYCIN],≥ 2,0.03,0.015,≥ 8,≥ 32,0.015,≥ 32
CC[C@H]1OC(=O)[C@H](C)[C@@H](O[C@H]2C[C@@](C)(OC)[C@@H](O)[C@H](C)O2)[C@H](C)[C@@H](O[C@@H]2O[C@H](C)C[C@H](N(C)C)[C@H]2O)[C@](C)(O)C[C@@H](C)C(=O)[C@H](C)[C@@H](O)[C@]1(C)O [ERYTHROMYCIN],≥ 2,8,2,≥ 32,≥ 32,1,≥ 32
